This note sets out measurements from patent publication US8987195B2 (priority 2012, dated 2015).

For assay [1], the target named is HCV NS3/4A protease genotype 3a (Hepatitis C virus genotype 3a, UniProt Q81495). Kind of assay: HCV NS3/4A protease time-resolved fluorescence (TRF) assay, Ki against genotype 3a. It is filed as biochemical. The procedure:
(§1) Measuring NS3/4A Inhibitory Activity (Ki) Against Genotype 1b, Against A156T Mutants and Against Genotype 3a
(§2) One assay for measuring inhibitory activity is HCV NS3 protease time-resolved fluorescence (TRF) assay as described below and in Mao et al., Anal. Biochem. 373:1-8, 2008 and International Patent Application Publication WO 2006/102087. A NS3 protease assay can be performed, for example, in a final volume of 20 μl assay buffer containing 50 mM HEPES, pH 7.5, 150 mM NaCl, 15% glycerol, 0.15% TRITON X-100, 10 mM DTT, and 0.1% PEG 8000. NS3 and NS4A protease is pre-incubated with various concentrations of inhibitors in DMSO for 30 min. The reaction is initiated by adding the TRF peptide substrate (final concentration 25 nM). NS3 mediated hydrolysis of the substrate was run for 2.5 hours at room temperature. Product fluorescence is detected using A Pherastar Plus plate reader (BMG) or Envision (Perkin Elmer Life and Analytical Sciences with excitation at 340 nm and emission at 615 nm using the appropriate delay time optimized for the europium fluorescence probe. Testing concentrations of different enzyme forms are selected to result in a signal to background ratio (S/B) of 10-30. IC50 values are derived using a standard four-parameter fit to the data. Ki values are derived from IC50 values using the following formula, IC50=Ki(1+[S]/KM), Eqn (1), where [S] is the concentration of substrate peptide in the reaction and KM is the Michaelis constant. See P. Gallinari et al., 38 BIOCHEM. 5620-32 (1999); P. Gallinari et al., 72 J. VIROL. 6758-69 (1998); M. Taliani et al., 240 ANAL. BIOCHEM. 60-67 (1996); Mao et al., Analytical Biochemistry 373: 1-8, 2008.
(§3) The assay described above was run against genotype 1b at a concentration of 0.2 nM, against A156T mutant strains at a concentration of 0.4 nM, and against genotype 3a at a concentration of 0.025 nM.

The next assay relates to HCV genotype 1b replicon. The assay is described as follows: HCV replicon assay, genotype 1b replicon EC50. As to conditions: Hepatitis C virus, read-out: EC50 [gt-1b]. It is filed as cell-based, Hepatitis C virus. The procedure, abridged:
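Replicon cells (Neo^r, some luciferase:Neo^r fusion); G418 removed at plating; compound dilution series, 24-48 h. Readout: RNA by 32P-probe hybridization/protection or TaqMan, normalized to cyclophilin A RNA, or luciferase. EC50 vs DMSO control, 4-parameter fit.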
A general note: In antiviral work, replicon cells carry a viral genome segment that copies itself.

The target in assay [2] is HCV NS3/4A protease genotype 1b (Hepatitis C virus genotype 1b, UniProt P26663). The assay is described as follows: HCV NS3/4A protease time-resolved fluorescence (TRF) assay, Ki against genotype 1b. Type of assay: biochemical. The procedure, abridged: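 Enzyme was pre-incubated 30 min with inhibitor in HEPES pH 7.5 buffer (150 mM NaCl, 15% glycerol, 10 mM DTT). Reaction ran 2.5 h at room temperature with 25 nM europium TRF peptide substrate, read at ex 340/em 615 nm. Enzyme levels: 0.2 nM (1b), 0.4 nM (A156T), 0.025 nM (3a). Ki came from four-parameter IC50 via IC50=Ki(1+[S]/KM).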

For assay [3], the target named is HCV NS3/4A protease A156T mutant (Hepatitis C virus genotype 1b, UniProt P26663, A1182T). Kind of assay: HCV NS3/4A protease time-resolved fluorescence (TRF) assay, Ki against A156T mutant. Type of assay: biochemical. As to conditions: read-out: IC50 [gt-1b A156T]. The procedure: as §1, §2, §3
The mark [4] stands for this setting: IC50 [gt-1b] (nM), NS3/4A genotype 1b, enzyme 0.2 nM, K+ salt.
Where [5] appears, read: NS3/4A gt-1b A156T mutant, enzyme 0.4 nM, K+ salt.
[6] abbreviates: IC50 [gt-1b] (nM), NS3/4A genotype 1b, enzyme 0.2 nM.
[7] abbreviates: NS3/4A gt-1b A156T mutant, enzyme 0.4 nM.
The mark [8] stands for this setting: IC50 [gt-1b], NS3/4A protease TRF assay, genotype 1b enzyme 0.2 nM.
The mark [9] stands for this setting: NS3/4A protease TRF assay, A156T mutant enzyme 0.4 nM.

Where two headings read alike, the source gives them in different places.

Turning to `Cc1nc2cc(F)c(F)cc2c2c1O[C@]1(CC2)C[C@H]2C(=O)N[C@]3(C(=O)NS(=O)(=O)C4(C)CC4)C[C@H]3/C=C\CCCCC[C@H](NC(=O)OC3(C)CC3)C(=O)N2C1` [Example 195, 1-methylcyclopropyl [(2R,6S,12Z,13aS,14aR,16aS)-8′,9′-difluoro-5′-methyl-14a-{[(1-methylcyclopropyl)sulfonyl]carbamoyl}-5,16-dioxo-1,1′,2′,5,6,7,8,9,10,11,13a,14,14a,15,16,16a-hexadecahydrospiro[cyclopropa[e]pyrrolo[1,2-a][1,4]diazacyclopentadecine-2,3′-pyrano[2,3-c]quinolin]-6-yl]carbamate], the IC50 (usually the concentration needed to halve the response being measured) in assay [1] was determined as 1.73 nM; in assay [2] (setting [4]), 0.01 nM; in assay [3] (setting [5]), 0.134 nM. The EC50 (usually the concentration giving half of the maximal effect) with HCV genotype 1b replicon (genotype 1b replicon, K+ salt) worked out at 8.67 nM.
With `COc1ccc2nc(C)c3c(c2c1)CC[C@]1(C[C@H]2C(=O)N[C@]4(C(=O)NS(=O)(=O)C5(C)CC5)C[C@H]4/C=C\CCCCC[C@H](NC(=O)OC4(C)COC4)C(=O)N2C1)O3` [Example 198, 3-methyloxetan-3-yl [(2R,6S,12Z,13aS,14aR,16aS)-9′-methoxy-5′-methyl-14a-{[(1-methylcyclopropyl)sulfonyl]carbamoyl}-5,16-dioxo-1,1′,2′,5,6,7,8,9,10,11,13a,14,14a,15,16,16a-hexadecahydrospiro[cyclopropa[e]pyrrolo[1,2-a][1,4]diazacyclopentadecine-2,3′-pyrano[2,3-c]quinolin]-6-yl]carbamate], the IC50 in assay [1] turned out to be 0.561 nM; in assay [2] (setting [6]) it was 0.006 nM; in assay [3] (setting [7]) it was 0.104 nM. Besides, the EC50 in the assay with HCV genotype 1b replicon (genotype 1b replicon) stood at 9.19 nM.
For `COc1ccc2nc(C)c3c(c2c1)CC[C@]1(C[C@H]2C(=O)N[C@]4(C(=O)NS(=O)(=O)C5(C)CC5)C[C@H]4/C=C\CCCCC[C@H](NC(=O)OC4CCC4)C(=O)N2C1)O3` [Example 199, cyclobutyl [(2R,6S,12Z,13aS,14aR,16aS)-9′-methoxy-5′-methyl-14a-{[(1-methylcyclopropyl)sulfonyl]carbamoyl}-5,16-dioxo-1,1′,2′,5,6,7,8,9,10,11,13a,14,14a,15,16,16a-hexadecahydrospiro[cyclopropa[e]pyrrolo[1,2-a][1,4]diazacyclopentadecine-2,3′-pyrano[2,3-c]quinolin]-6-yl]carbamate], the values for the IC50 in assay [1], in assay [2] (setting [4]) and in assay [3] (setting [5]) were 0.287 nM, 0.003 nM and 0.0462 nM, respectively. For the same molecule, in the assay with HCV genotype 1b replicon (genotype 1b replicon, K+ salt), the EC50 was 1 nM.
With `Cc1nc2ccc(C(F)(F)F)cc2c2c1O[C@]1(CC2)C[C@H]2C(=O)N[C@]3(C(=O)NS(=O)(=O)C4(C)CC4)C[C@H]3/C=C\CCCCC[C@H](NC(=O)OCC(C)(C)C)C(=O)N2C1` [Example 255, 2,2-dimethylpropyl [(2R,6S,12Z,13aS,14aR,16aS)-5′-methyl-14a-{[(1-methylcyclopropyl)sulfonyl]carbamoyl}-5,16-dioxo-9′-(trifluoromethyl)-1,1′,2′,5,6,7,8,9,10,11,13a,14,14a,15,16,16a-hexadecahydrospiro[cyclopropa[e]pyrrolo[1,2-a][1,4]diazacyclopentadecine-2,3′-pyrano[2,3-c]quinolin]-6-yl]carbamate], the 50% inhibitory concentration (IC50) in assay [1] was determined as 2.86 nM; in assay [2] (setting [6]) it was 0.015 nM; in assay [3] (setting [7]) it was 0.679 nM. Also, the EC50 with HCV genotype 1b replicon (genotype 1b replicon) was 50.9 nM.
Turning to `COc1ccc2nc(C)c3c(c2c1)C(F)(F)C[C@]1(C[C@H]2C(=O)N[C@]4(C(=O)NS(=O)(=O)C5(C)CC5)C[C@H]4/C=C\CCCCC[C@H](NC(=O)OCC(C)C)C(=O)N2C1)O3` [Example 266, 2-methylpropyl [(2S,6S,12Z,13aS,14aR,16aS)-1′,1′-difluoro-9′-methoxy-5′-methyl-14a-{[(1-methylcyclopropyl)sulfonyl]carbamoyl}-5,16-dioxo-1,1′,2′,5,6,7,8,9,10,11,13a,14,14a,15,16,16a-hexadecahydrospiro[cyclopropa[e]pyrrolo[1,2-a][1,4]diazacyclopentadecine-2,3′-pyrano[2,3-c]quinolin]-6-yl]carbamate], the IC50 in assay [1] is 2.1 nM; in assay [2] (setting [4]), 0.014 nM; in assay [3] (setting [5]), 0.384 nM. The EC50 with HCV genotype 1b replicon (genotype 1b replicon, K+ salt) was 4.47 nM.
Regarding `COc1ccc2nc(C)c3c(c2n1)CC[C@]1(C[C@H]2C(=O)N[C@]4(C(=O)NS(=O)(=O)C5(C)CC5)C[C@H]4/C=C\CCCCC[C@H](NC(=O)OCC(C)(C)C)C(=O)N2C1)O3` [Example 361, 2,2-dimethylpropyl [(2R,6S,12Z,13aS,14aR,16aS)-2′-methoxy-6′-methyl-14a-{[(1-methylcyclopropyl)sulfonyl]carbamoyl}-5,16-dioxo-1,5,6,7,8,9,9′,10,10′,11,13a,14,14a,15,16,16a-hexadecahydrospiro[cyclopropa[e]pyrrolo[1,2-a][1,4]diazacyclopentadecine-2,8′-pyrano[2,3-c][1,5]naphthyridin]-6-yl]carbamate], the IC50 amounted to 0.433 nM in assay [1], 0.012 nM in assay [2] (setting [8]) and 0.241 nM in assay [3] (setting [9]). In addition, the EC50 in the assay on HCV genotype 1b replicon (HCV replicon, genotype 1b) was 4.43 nM.
Consider `CC(C)(C)COC(=O)N[C@H]1CCCCC/C=C\[C@@H]2C[C@@]2(C(=O)NS(=O)(=O)C2(C)CC2)NC(=O)[C@@H]2C[C@]3(CCc4c(c(C(F)F)nc5ccc(Cl)cc45)O3)CN2C1=O` [Example 369, 2,2-dimethylpropyl [(2R,6S,12Z,13aS,14aR,16aS)-9′-chloro-5′-(difluoromethyl)-14a-{[(1-methylcyclopropyl)sulfonyl]carbamoyl}-5,16-dioxo-1,1′,2′,5,6,7,8,9,10,11,13a,14,14a,15,16,16a-hexadecahydrospiro[cyclopropa[e]pyrrolo[1,2-a][1,4]diazacyclopentadecine-2,3′-pyrano[2,3-c]quinolin]-6-yl]carbamate], for which the figures for the IC50 in assay [1], in assay [2] (setting [8]) and in assay [3] (setting [9]) were 1.18 nM, 0.018 nM and 1.16 nM, respectively. For the same molecule, the EC50 in the assay with HCV genotype 1b replicon (HCV replicon, genotype 1b) was determined as 15.1 nM.
Consider `COc1ccc2nc(C)c3c(c2c1)[C@H](F)C[C@]1(C[C@H]2C(=O)N[C@]4(C(=O)NS(=O)(=O)C5(C)CC5)C[C@H]4/C=C\CCCCC[C@H](NC(=O)OCC(C)(C)F)C(=O)N2C1)O3` [Example 370, 2-fluoro-2-methylpropyl [(1′R,2S,6S,12Z,13aS,14aR,16aS)-1′-fluoro-9′-methoxy-5′-methyl-14a-{[(1-methylcyclopropyl)sulfonyl]carbamoyl}-5,16-dioxo-1,1′,2′,5,6,7,8,9,10,11,13a,14,14a,15,16,16a-hexadecahydrospiro[cyclopropa[e]pyrrolo[1,2-a][1,4]diazacyclopentadecine-2,3′-pyrano[2,3-c]quinolin]-6-yl]carbamate], for which the IC50 in assay [1] was found to be 0.149 nM; in assay [2] (IC50 [gt-1b], NS3/4A protease TRF assay, genotype 1b enzyme 0.2 nM, K+ salt) it was 0.009 nM; in assay [3] (NS3/4A protease TRF assay, A156T mutant enzyme 0.4 nM, K+ salt), 0.037 nM. Further, the EC50 with HCV genotype 1b replicon (HCV replicon, genotype 1b, K+ salt) was 8.56 nM.
